# According to US9782387B2, “Compositions and methods for treating hematological malignancies” (Tel HaShomer Medical Research Infrastructure and Services …, priority 2013, dated 2017):
# Legend:
# MM.1S cells = experiment: Combination XTT assay, Chou-Talalay, MM.1S; assay type: cell-based, human; set-up: key: CI <1 synergism, =1 additive, >1 antagonism (Chou-Talalay); conditions: 48 h
# Method: (§1) Combinations of novel and/or conventional anti-MM agents may achieve higher clinical response rates than a single agent(s).
# (§2) CI value <1, =1, >1 indicates synergism, additive effect, and antagonism, respectively, (n=3 independent experiments). The CI values were calculated by the Chou-Talalay method based on the median-effect equation and the classic isobologram equation [22], using compusyn computer software.
# RPMIS cells = experiment: Combination XTT assay, Chou-Talalay, RPMIS; assay type: cell-based, human; set-up: key: CI <1 synergism, =1 additive, >1 antagonism (Chou-Talalay); conditions: 48 h
# Method: as §1, §2
# [1] = system: human multiple myeloma (MM) cell lines; experiment: Cell viability XTT assay, MM cell lines; assay type: cell-based; conditions: each MM cell line
# Method: The following panel of human multiple myeloma (MM) cell lines was used: RPMI-S (ATCC® CCL-155), RPMI-LR5, RPMI-MR20, MM.1S (ATCC® CRL-2974). OPM1, OPM-2, U266 ATCC® TIB-196 and CAG. The human immortalized bone marrow stromal cell (BMSC) line HS-5 was obtained from ATCC® CRL-11882. MM cell lines were grown in RPMI and HS-5 in DMEM, supplemented with 10% fetal calf serum, 2 mM L-glutamine, 100 units/mL penicillin and 100 μg/mL streptomycin (Biological Industries, Beit Haemek, Israel), and incubated in a humidified atmosphere of 5% CO2 and 95% air at 37° C.
# MM cell lines were plated at a density of 2×10^4 cells per well in 96-wells and treated with different concentrations of STK405759. For patient samples, bone marrow aspirates from MM patients were collected, mononuclear cells were separated by Ficoll density gradient centrifugation and myeloma cells selected using CD138 microbeads (Miltenyi Biotec). Purified CD138^+ cells from patients were plated at a density of 2×10^4 cells per well and treated for 48 h with different concentrations of STK405759. Peripheral blood samples were processed by Ficoll density gradient centrifugation to isolate peripheral blood mononuclear cells (PBMCs). […] Cell viability was measured using XTT cell proliferation Kit (Biological Industries) according to manufacture instructions. […]
# [2] = system: affinity-purified CD138+ cells from bone marrow samples of MM patients; experiment: Cell viability XTT assay, primary patient MM cells; assay type: cell-based, human; conditions: 2 MM patients, 48 h
# Method: (§3) MM cell lines were plated at a density of 2×10^4 cells per well in 96-wells and treated with different concentrations of STK405759. For patient samples, bone marrow aspirates from MM patients were collected, mononuclear cells were separated by Ficoll density gradient centrifugation and myeloma cells selected using CD138 microbeads (Miltenyi Biotec). Purified CD138^+ cells from patients were plated at a density of 2×10^4 cells per well and treated for 48 h with different concentrations of STK405759. Peripheral blood samples were processed by Ficoll density gradient centrifugation to isolate peripheral blood mononuclear cells (PBMCs). PBMCs were plated at 2×10^4 cells per well and exposed to different concentrations of STK405759 for 48 h. Cell viability was measured using XTT cell proliferation Kit (Biological Industries) according to manufacture instructions.
# [3] = system: peripheral blood mononuclear cells (PBMCs); experiment: Cell viability XTT assay, PBMCs; assay type: cell-based, human; conditions: PBMC from the same patients and from healthy donors, 48 h
# Method: as §3
# [4] = system: HS-5 bone marrow stromal cells; experiment: CFSE/PI FACS viability in co-culture, stromal cells; assay type: cell-based, human; conditions: 48 h
# Method: FIGS. 2A-D are graphs showing that STK405759 overcomes the growth stimulatory effect of BMSCs. IL-6 or IGF-1 on MM cell growth. FIG. 2A-B—RPMIS cells were stained with CFSE, co-cultured with HS-5 and exposed to STK405759 (70 nM) for 48 h. The cells were contrastained with PI to distinguish live from nonviable cells using FACS analysis. The values of the fraction of nonviable (CFSE^−PI^+) HS-5 cells within the entire population of HS-5 cells (CFSE^−) cultured alone or with RPMIS cells, and the fraction of (CFSE^+PI^+) RPMIS cells within the entire population of RPMIS cells (CFSE) cultured alone or with HS-5 cells are presented as a function of the STK405759 concentrations. FIGS. 2C-D—RPMIS cells were cultured for 48 hours at the indicated concentrations of STK405759 in the presence or absence of IL-6 (5 or 10 ng/ml) or IGF-1 (10 or 30 ng/ml). Data presented are from three independent experiments and presented as means±SE.
# Since BMSC trigger and maintain MM cell homing, proliferation, and drug resistance, the present inventors have assessed whether MM cell sensitivity to STK405759 is attenuated by co-culture with bone marrow stromal cells. In order to quantify viability of MM cells cultured alone or co-cultured with HS-5 bone marrow stromal cells. MM cells were stained with CFSE. […]
# RPMIS MM cells = experiment: Xenograft murine model; assay type: in vivo, SCID mice; conditions: 0.5 mg/kg i.p.; not reached after follow-up of 60 days; control 28 days
# Method: RPMIS cells (7×10^6 mouse in 100 μl of PBS) were injected subcutaneously in SCID mice. Mice (n=10 per group) received STK405759 (0.5 mg/kg in 0.1 ml PBS) or control vehicle (0.1 ml PBS), by intraperitoneal (i.p.) administration once a day for 5 days. FIG. 6A—Tumor diameters were measured every 2-3 days with caliper, and tumor volumes were calculated using the formula of the volume of an ellipse: ½ (length×width^2). […] FIG. 6B—Kaplan-Meier analysis of overall survival confirmed that STK405759 increased survival compared with control mice. […] FIG. 6D—Induction of apoptosis and cell death in tumors excised from vehicle or STK405759 (0.5 mg/kg) treated animals are shown by TUNEL assay. Photomicrographs show apoptotic cells (brown) using light microscopy (×20 and ×40 magnification).
# Male SCID mice (6-8 week old) were maintained in accordance with Institutional Animal Care Use Committee guidelines. […]
# Mice were monitored every 2-3 d for changes in body weight and tumor burden. Tumor volumes were measured by a caliper every alternate day and calculated using the following formula: length×width^2×0.5. […] Following sacrifice, tumors were immediately collected and evaluated for induction of apoptosis and cell death by TdT-mediated dUTP nick end labeling (TUNEL) assay.
# [5] = Xenograft murine model, body weight and toxicity; assay type: in vivo; conditions: 0.5 mg/kg i.p., during treatment
# Method: Mice were monitored every 2-3 d for changes in body weight and tumor burden. Tumor volumes were measured by a caliper every alternate day and calculated using the following formula: length×width^2×0.5. Mice were sacrificed in accordance with institutional guidelines when tumors reached 1.5 cm^3 or if the mice appeared moribund, to prevent unnecessary morbidity to the mice. Following sacrifice, tumors were immediately collected and evaluated for induction of apoptosis and cell death by TdT-mediated dUTP nick end labeling (TUNEL) assay.
smiles,measurement,setting,value
"CC(C)C[C@H](NC(=O)[C@H](Cc1ccccc1)NC(=O)c1cnccn1)B(O)O [BTZ, bortezomib]",Combination Index,MM.1S cells; STK405759 45 nM + BTZ 1 nM,0.62 ± 0.14
same,Combination Index,MM.1S cells; STK405759 45 nM + BTZ 5 nM,0.58 ± 0.02
same,Combination Index,RPMIS cells; STK405759 45 nM + BTZ 1 nM,0.88 ± 0.02
same,Combination Index,RPMIS cells; STK405759 45 nM + BTZ 5 nM,0.78 ± 0.08
"C[C@@H]1C[C@H]2[C@@H]3CCC4=CC(=O)C=C[C@]4(C)[C@@]3(F)[C@@H](O)C[C@]2(C)[C@@]1(O)C(=O)CO [DEX, dexamethasone]",Combination Index,MM.1S cells; STK405759 45 nM + DEX 1 nM,0.76 ± 0.15
same,Combination Index,MM.1S cells; STK405759 45 nM + DEX 5 nM,0.63 ± 0.09
same,Combination Index,RPMIS cells; STK405759 45 nM + DEX 1 nM,0.76 ± 0.06
same,Combination Index,RPMIS cells; STK405759 45 nM + DEX 5 nM,0.84 ± 0.03
"COc1cccc2c1C(=O)c1c(O)c3c(c(O)c1C2=O)C[C@@](O)(C(=O)CO)C[C@@H]3O[C@H]1C[C@H](N)[C@H](O)[C@H](C)O1 [DOXO, doxorubicin]",Combination Index,MM.1S cells; STK405759 45 nM + DOXO 10 nM,1.30 ± 0.06
same,Combination Index,MM.1S cells; STK405759 45 nM + DOXO 30 nM,1.54 ± 0.08
same,Combination Index,RPMIS cells; STK405759 45 nM + DOXO 10 nM,1.44 ± 0.01
same,Combination Index,RPMIS cells; STK405759 45 nM + DOXO 30 nM,1.63 ± 0.10
"Nc1cccc2c1CN(C1CCC(=O)NC1=O)C2=O (stereo not shown) [LEN, lenalidomide]",Combination Index,MM.1S cells; STK405759 45 nM + LEN 5 μM,0.62 ± 0.09
same,Combination Index,MM.1S cells; STK405759 45 nM + LEN 25 μM,0.58 ± 0.09
same,Combination Index,RPMIS cells; STK405759 45 nM + LEN 5 μM,0.77 ± 0.09
same,Combination Index,RPMIS cells; STK405759 45 nM + LEN 25 μM,0.74 ± 0.05
CCCCCOC(=O)c1[nH]c2c(c1C)C(=O)CC(c1ccco1)C2 (stereo not shown) [STK405759],IC50,[1],< 0.044 µM
same,cytotoxic response of primary MM cells,[2],dose-dependent cytotoxic response
same,cytotoxic effect on PBMC,[3],non responsive to the cytotoxic effect
same,viability of HS-5 stromal cells,[4],unaffected
same,median overall survival,RPMIS MM cells,> 60 days
same,changes in weight or other signs of potential toxicity,[5],No significant changes
